Test results: US4120864A, “1,2,4-4H-triazole derivatives” (Rohm and Haas Company, priority 1972, dated 1978)
Where a name gives a salt, the structure may show the parent alone. Read-outs that look alike come from different tables or passages of the source.

How the values were obtained:
Type in all cases: in vivo
[1] = test system: wheat leaf rust, Puccinia recondita
[2] = test system: wheat leaf rust, Puccinia recondita; assay: whole plant or invertebrate; details: foliar; for pest or weed control at 280.212 g/ha: read-out: % Control (with 1" of rain), foliar, 0.25 lb., 1" of rain; for pest or weed control at 1120.85 g/ha: read-out: % Control (with 1" of rain), foliar, 1 lb., 1" of rain
[3] = test system: wheat leaf rust, Puccinia recondita; assay: whole plant or invertebrate; details: foliar; for pest or weed control at 280.212 g/ha: read-out: % Control (without rain), foliar, 0.25 lb.; for pest or weed control at 1120.85 g/ha: read-out: % Control (without rain), foliar, 1 lb.
[4] = test system: wheat leaf rust, Puccinia recondita; assay: Foliar systemic activity on leaf rust
Excerpt: Another type of systemic test was run in which pots of approximately 5 inch high wheat plants were sprayed with varying concentrations of the test compound. Thirty-six hours later they were sprayed six minutes in a rain machine which amounted to about one inch of normal rainfall. The plants were then placed in a greenhouse for 7 days and then inoculated with a spore suspension of wheat leaf rust, Puccinia recondita. About 7 days later lesion counts were made on ten leaves representing the sprayed leaves and new growth from each replicate and compared with similar pots of wheat plants which were untreated with a chemical and the percent disease control determined. Disease control on the new growth is a measure of systemic activity. The commercial product known by the trademarked name Plantvax, which is 2,3-dihydro-5-carboxanilido-6-methyl-1,4-oxathiin-4,4-dioxide, was used as a standard.

Compound	% Systemic Wheat Leaf Rust Control ([1]; 2.5 ppm in soil)	% Systemic Wheat Leaf Rust Control ([1]; 5 ppm in soil)	% Systemic Wheat Leaf Rust Control ([1]; 10 ppm in soil)	% Control (with 1" of rain) ([2]; 0.25 lb.)	% Control (with 1" of rain) ([2]; 1 lb.)	% Control (without rain) ([3]; 0.25 lb.)	% Control (without rain) ([3]; 1 lb.)	% Rust Control, New growth ([4]; 1/2 lb./100 gal.)	% Rust Control, Sprayed Leaf ([4]; 1/2 lb./100 gal.)	% Rust Control, New growth ([4]; 1/6 lb./100 gal.)	% Rust Control, Sprayed Leaf ([4]; 1/6 lb./100 gal.)	% Rust Control, New growth ([4]; 1/12 lb./100 gal.)	% Rust Control, Sprayed Leaf ([4]; 1/12 lb./100 gal.)	pest or weed control at 280.212 g/ha [2]	pest or weed control at 1120.85 g/ha [2]	pest or weed control at 280.212 g/ha [3]	pest or weed control at 1120.85 g/ha [3]	% Systemic Wheat Leaf Rust Control ([1]; 20 ppm in soil)
CCCCn1c(SC(=O)NC)nnc1C(=O)O [Example 100, triethanolamine salt of 3 methyl-carbamoylmercapto-4-n-butyl-5-carboxy-1,2,4-triazole]	89%	99%	99%	100%	100%	100%	100%	79%	79%	63%	79%	54%	57%					
CCCn1cnnc1S [Example 75, 3-mercapto-4-n-propyl-1,2,4-triazole]	40%	82%	84%											100%	99%	91%	100%	
CCCCn1cnn(CCC#N)c1=S [Example 106, 2-(2-cyanoethyl)-4-n-butyl-1,2,4-triazoline-3-thione]	82%	86%	92%											99%	100%	100%	100%	
CCCCn1cnnc1SCC(=O)c1ccc(OC)cc1 [Example 125, 3-(p-methoxyphenacylmercapto)-4-n-butyl-1,2,4-triazole]	55%	68%	44%											20%	30%	50%	60%	
CCCCn1c(S)nnc1C(=O)OCC [Example 98, sodium salt of 3-mercapto-4-butyl-5-ethoxycarbonyl-1,2,4-triazole]	85%	97%	99%	100%	100%	86%	100%											
CCCCn1c(SC(=S)N(C)C)nnc1C(=O)O [Example 101, 3-dimethylthiocarbamoylmercapto-4-n-butyl-5-carboxy-1,2,4-triazole]	88%	96%	100%											100%	100%	100%	100%	
CCCCCCn1cnnc1 [Example 9, 4-n-hexyl-1,2,4-triazole]	77%	92%												100%	100%	100%	100%	
CC(C)CCn1cnnc1 [Example 8, 4-isopentyl-1,2,4-triazole]														98%	100%	98%	99%	100%
COCCCn1cnnc1 [Example 46, 4-(3-methoxypropyl)-1,2,4-triazole]	96%	99%												99%	100%	100%	100%	
C=CCSc1nncn1CCCC [Example 105, 3-allylmercapto-4-n-butyl-1,2,4-triazole]														50%	90%	50%	95%	
O=[N+]([O-])c1cccc(-n2cnnc2)c1 [Example 58, 4-(3-nitrophenyl)-1,2,4-triazole]														0%	0%	80%	80%	
